From patent US8591876B2, “Methods of decreasing sebum production in the skin” (priority 2010, dated 2013)

How the values were obtained:
[1] = system: human sebocytes (SEB-1); assay: Cytotoxicity to human sebocytes (SEB-1), Cell Titer-Blue Cell Viability Assay; type: cell-based; details: in reference to cells incubated with media alone
[2] = system: normal human keratinocytes (NHEK); assay: Cytotoxicity to normal human keratinocytes (NHEK), Cell Titer-Blue Cell Viability Assay; type: cell-based; details: in reference to cells incubated with media alone

N[C@@H](CCC(=O)N[C@@H](CSN=O)C(=O)NCC(=O)O)C(=O)O [GSNO, S-nitrogluthione]
% SEB-1 Killed ([1]; 0.12 mg/ml, 24 hr): 6%
% SEB-1 Killed ([1]; 0.12 mg/ml, 48 hr): 11%
% SEB-1 Killed ([1]; 0.12 mg/ml, 72 hr): 19%
% SEB-1 Killed ([1]; 0.6 mg/ml, 24 hr): 48%
% SEB-1 Killed ([1]; 0.6 mg/ml, 48 hr): 68%
% SEB-1 Killed ([1]; 0.6 mg/ml, 72 hr): 67%
% SEB-1 Killed ([1]; 1.2 mg/ml, 24 hr): 85%
% SEB-1 Killed ([1]; 1.2 mg/ml, 48 hr): 97%
% SEB-1 Killed ([1]; 1.2 mg/ml, 72 hr): 98%
% NHEK Killed ([2]; 0.12 mg/ml, 24 hr): 4%
% NHEK Killed ([2]; 0.12 mg/ml, 48 hr): 5%
% NHEK Killed ([2]; 0.12 mg/ml, 72 hr): 15%
% NHEK Killed ([2]; 0.6 mg/ml, 24 hr): 8%
% NHEK Killed ([2]; 0.6 mg/ml, 48 hr): −11%
% NHEK Killed ([2]; 0.6 mg/ml, 72 hr): −3%
% NHEK Killed ([2]; 1.2 mg/ml, 24 hr): 34%
% NHEK Killed ([2]; 1.2 mg/ml, 48 hr): 53%
% NHEK Killed ([2]; 1.2 mg/ml, 72 hr): 44%
